Reference: patent publication US10342799B2, “Compositions and methods for prophylaxis and therapy for Meniere's disease” (priority 2013, dated 2019)

Tested on: patients diagnosed with active definite MD (Ménière's vertigo attacks)
Assay: Retrospective and prospective review of active definite Meniere's disease patients treated with lamotrigine (vertigo attacks, DHI, side effects)
Format: in vivo, human patients
Experimental: Population. A retrospective and prospective review was performed on patients who were older than 18 years old, diagnosed with active definite MD at the Dent Dizziness, Balance and Tinnitus Center and treated with lamotrigine. Definite MD is defined as two or more episodes of vertigo that last for ≥20 minutes with documented hearing loss on at least one occasion, tinnitus and/or aural fullness, and other causes excluded. Active MD status requires patients to experience at least three vertigo attacks during the three months prior to treatment.
Clinical data. Data collected included demographic information, history of MD, prior medical treatment, clinical diagnosis, clinical presentation, stage of the disease, and frequency of Ménière's vertigo attacks prior to and after treatment. The staging of MD was based on the four-tone average of the pure-tone thresholds at 0.5, 1, 2 and 3 kHz of the worst audiogram during the six months before treatment. The questionnaires used were the Dizziness Handicap Inventory (DHI) and the Center's Dizziness Questionnaire. Current or past history of anxiety/depression, migraine problems, and use of anti-anxiety medication were also analyzed.
Outcome variable. The primary outcome measure was the reduction of Ménière's vertigo attacks at both three months after lamotrigine initiation (primarily the titration period) and three months after treatment at maintenance dosage. Secondary outcome measures included DHI scores and patient reports of clinical improvement. Data were confirmed by review of physicians' notes, vestibular and audiogram testing results, and supporting data. Means and standard deviations (SDs) were calculated for all continuous variables and proportions for all categorical variables. The primary research questions were whether or not lamotrigine led to a reduction of Ménière's vertigo attacks and whether or not lamotrigine led to improvement in quality of life for MD patients.
Statistical analysis. The overall difference in Meniere's vertigo attacks among 3 months pre-treatment, 3 months of titration, and 3 months of maintenance treatment was evaluated by Friedman's test, which is a nonparametric test for treatment differences in a randomized complete block design. The Wilcoxon signed rank sum test, which is the nonparametric version of a paired sample t-test, was used for the pairwise comparisons of Meniere's vertigo attacks from the three different time periods as well as DHI before and after treatment. Fisher's exact test was used to evaluate whether treatment effectiveness was affected by migraine or anxiety comorbidities. For all of these statistical tests, the tests were two-sided, and the level of significance was set to 0.05. Differences were considered significant if the p-value was less than 0.05.
Lamotrigine titration. All 45 patients began a titration of lamotrigine of 25 mg BID for two weeks to 50 mg BID for two weeks. Final maintenance dosages varied between 25 mg BID and 200 mg BID due to individual patient tolerance and response; 29 patients were on either 100 mg BID or 150 mg BID maintenance dosages (64%). There was one patient who was lost to follow-up. There were four patients who discontinued lamotrigine due to side effects: one experienced stomachaches and diarrhea, one complained of hallucinations, and two developed rashes.

[1] = mean (SD), three months prior to treatment: 12.7 (SD 11.6)
[2] = number of patients, value in brackets

Nc1nnc(-c2cccc(Cl)c2Cl)c(N)n1 [Lamotrigine, 6-(2,3-Dichlorophenyl)-1,2,4-triazine-3,5-diamine]
vertigo attack reduction and remission: influence of migraine comorbidity (Fisher's exact test, p=0.414): not affected
vertigo attack reduction and remission: influence of anxiety/depression comorbidity (Fisher's exact test, p=1.000): not affected
patients who reported improvement and had anxiety/depression disorder (among the 38 improved patients): 28 patients
patients who reported improvement and had migraine (among the 38 improved patients): 20 patients
mean post-treatment DHI score (mean (SD), prior treatment DHI 47.6 (SD 19.6)): 28.6 (SD 20.9)
mean number of vertigo attacks after three months of maintenance dosage [1]: 1.9 (SD 4.6)
mean number of vertigo attacks three months after initiation (primarily the titration period) [1]: 4.5 (SD 6.2)
Side effect, MD with migraine (number of patients): 1
Side effect, MD without migraine (number of patients): 3
Side effect, Total (number of patients): 4
Vertigo attack free, MD with migraine (number of patients): 11
Vertigo attack free, MD without migraine (number of patients): 10
Vertigo attack free, Total (number of patients): 21
Vertigo reduced, MD with migraine (number of patients): 9
Vertigo reduced, MD without migraine (number of patients): 8
Vertigo reduced, Total (number of patients): 17
Vertigo unchanged, MD with migraine (number of patients): 1 (1)
Vertigo unchanged, MD without migraine (number of patients): 1 (1)
Vertigo unchanged, Total (number of patients): 2
Side effect, MD with anxiety [2]: 3
Side effect, MD without anxiety [2]: 1
Vertigo attack free, MD with anxiety [2]: 15
Vertigo attack free, MD without anxiety [2]: 6
Vertigo reduced, MD with anxiety [2]: 13
Vertigo reduced, MD without anxiety [2]: 4
Vertigo unchanged, MD with anxiety [2]: 1 (1)
Vertigo unchanged, MD without anxiety [2]: 1 (1)
patients with complete resolution of Ménière's vertigo attacks during the three month maintenance period (of 38 improved patients): 21 patients
patients who discontinued lamotrigine due to side effects (of 45 patients): four
patients who discontinued with hallucinations (of 45 patients): one
patients who discontinued with rashes (of 45 patients): two
patients who discontinued with stomachaches and diarrhea (of 45 patients): one
proportion of patients who reported an improvement in Ménière's vertigo attacks (out of all 45 study patients): 84%
patients who reported an improvement in Ménière's vertigo attacks with lamotrigine treatment (out of all 45 study patients, maintenance 25-200 mg BID): 38 patients
post-DHI score less than pre-DHI score, on average (p=0.001): 19 points
vertigo attacks during 3 months of maintenance relative to 3 months of titration (p=0.04): significantly fewer
vertigo attacks during the two treatment periods compared to the 3 months prior to treatment (titration and maintenance periods, p<0.001, p<0.001, Wilcoxon signed rank): significantly fewer
